Experimental findings from patent US20210283163A1, “COMPOSITIONS AND METHODS FOR THE TREATMENT OF ACUTE AND CHRONIC PRURITIS” (Duke University, priority 2018, published 2021) are described below.

One data set concerns mice. Briefly: Back model: intradermal nape injection, scratching. The class given is in vivo, mouse. Particulars: 0.01-1 mM, 10 μL. As for the experimental part: Behavioral Assessment for Scratching (Itch) and Wiping (Pain). Mice were shaved on the cheek or nape after a brief anesthesia with isoflurane. Before experiments, mice were habituated in small plastic chambers (14×18×12 cm) daily for two days. The room temperature and humidity remained stable for all the experiments. […] After the injection, the number of scratches in 60 min was counted. A scratch was counted when a mouse lifted its hind paw to scratch the shaved region and returned the paw to the floor or to the mouth. A bout of wiping was defined as a continuous wiping movement with a forepaw directing at the area of the injection area (Shimada and LaMotte, Pain 2008, 139, 681-687). Scratching and wiping behavior was videoed for 30 min or 60 min using Sony HDR-CX610 camera. The video was subsequently played back offline and the numbers of scratches and wipes were quantified in a blinded manner.

A further data set has as its target hTRPA1 (Homo sapiens, UniProt O75762). Briefly: Calcium imaging (Fura-2) in TRPA1-expressing HEK293 cells. The class given is cell-based. Particulars: 50 μM. As for the experimental part: Ca^2+ Imaging. Ca ^2+ imaging was conducted in mouse DRG and TG neurons from Pirt-GCaMP3 mice (Anderson et al., Neurosci. Bull. 2018, 34, 194-199) at room temperature. The imaging buffer includes 140 mM NaCl, 10 mM D-(+)-Glucose, 1 mM MgCl2, 2 mM CaCl2, 5 mM KCl, 10 mM HEPES, pH=7.4, osmolarity=320 mOsm/L. Calcium signals were measured using green emitted light in a 3 s interval. Ca ^2+ signal amplitudes were presented as ΔF/F0=(Ft−F0)/F0 as ratio of fluorescence difference (Ft−F0) to basal value (F0). The average fluorescence intensity in the baseline period was taken as F0. Ca ^2+ imaging was also analyzed in HEK293-TRPA1 cell line after loading cells with […] fura2-AM (Invitrogen) for 40 min in the Ca^2+ imaging buffer. Ca^2+ imaging protocol was a ratio metric method with 340/380-nm wavelength light for dual excitation. Data were presented as ΔR/R0, determined as the fraction ΔR (Rt−R0) of the increase of a given ratio over baseline ratio (R0).

hTRPA1, sequence (O75762 whole entry): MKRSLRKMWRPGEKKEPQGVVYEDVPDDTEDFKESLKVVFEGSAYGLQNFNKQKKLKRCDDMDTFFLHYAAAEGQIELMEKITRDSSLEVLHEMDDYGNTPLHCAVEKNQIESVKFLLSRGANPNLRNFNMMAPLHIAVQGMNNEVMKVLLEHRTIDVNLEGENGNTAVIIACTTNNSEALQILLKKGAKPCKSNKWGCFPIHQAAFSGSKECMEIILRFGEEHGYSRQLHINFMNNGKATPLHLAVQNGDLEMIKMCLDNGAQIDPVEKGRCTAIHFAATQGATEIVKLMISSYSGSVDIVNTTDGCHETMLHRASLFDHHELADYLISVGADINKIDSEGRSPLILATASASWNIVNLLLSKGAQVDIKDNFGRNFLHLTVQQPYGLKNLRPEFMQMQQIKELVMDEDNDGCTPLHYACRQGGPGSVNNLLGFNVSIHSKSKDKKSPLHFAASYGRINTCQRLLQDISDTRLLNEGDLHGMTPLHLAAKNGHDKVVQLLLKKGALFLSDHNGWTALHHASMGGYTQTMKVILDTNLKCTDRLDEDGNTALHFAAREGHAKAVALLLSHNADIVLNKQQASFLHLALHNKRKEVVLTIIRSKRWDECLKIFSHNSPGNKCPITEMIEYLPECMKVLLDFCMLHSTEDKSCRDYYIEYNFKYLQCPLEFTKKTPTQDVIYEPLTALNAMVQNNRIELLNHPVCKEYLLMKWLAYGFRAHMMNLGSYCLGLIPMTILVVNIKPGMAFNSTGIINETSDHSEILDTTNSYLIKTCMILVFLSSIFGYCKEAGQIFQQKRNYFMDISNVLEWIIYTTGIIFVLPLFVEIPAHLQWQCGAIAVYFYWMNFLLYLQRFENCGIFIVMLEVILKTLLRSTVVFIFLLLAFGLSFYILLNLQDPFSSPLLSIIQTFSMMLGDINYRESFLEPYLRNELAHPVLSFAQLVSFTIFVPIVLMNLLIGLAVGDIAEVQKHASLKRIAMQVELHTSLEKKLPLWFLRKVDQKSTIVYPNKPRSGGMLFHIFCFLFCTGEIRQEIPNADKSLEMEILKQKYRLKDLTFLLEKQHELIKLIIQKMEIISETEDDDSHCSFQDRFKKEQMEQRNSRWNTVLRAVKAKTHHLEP

Turning to “miR-711: mmu-miR-711: gggacccggggagagauguaag (SEQ ID NO: 5) (GGGACCCGGGGAGAGAUGUAAG; chemistry not given here)”, the “scratching after intradermal injection on the nape of neck” value in the data set with mice is listed as “dose-dependent scratching”. Also, the “calcium responses in TRPA1-expressing HEK293 cells” value in the data set with hTRPA1 was “evoked calcium responses”.
